Measurements published in PubChem BioAssay (NCI).
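Five compound concentrations were applied to cells in 96-well plates for 48 hours; endpoints were derived by simple linear interpolation of the resulting dose-response curve. The concentration for 50% growth inhibition is given as GI50. TGI marks complete inhibition of growth.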

Tests used:
Assay in all cases: inhibition of tumour cell growth, NCI panel, 48 h
[1] = system: NCI-H522 lung
[2] = system: SN12C renal
[3] = system: OVCAR-3 ovarian
[4] = system: U251 CNS
[5] = system: HOP-62 NSCLC
[6] = system: SF-539 CNS
[7] = system: SK-OV-3 ovarian
[8] = system: OVCAR-4 ovarian
[9] = system: SW-620 colon
[10] = system: COLO 205 colon
[11] = system: OVCAR-5 ovarian
[12] = system: HL-60(TB) leukemia
[13] = system: MOLT-4 leukemia

O=[N+]([O-])/C=C/c1cccc(F)c1
TGI [1]: 26.9 µM | TGI [2]: 38.9 µM | TGI [3]: 7.38 µM | TGI [4]: 16.4 µM | TGI [5]: 32.4 µM | TGI [6]: 20.8 µM | TGI [7]: 28.2 µM | TGI [8]: 16.8 µM | TGI [9]: 8.88 µM | TGI [10]: 8.02 µM

CN[C@@H]1[C@H](O)[C@H](NC)[C@H]2O[C@@]3(O)C(=O)C[C@@H](C)O[C@H]3O[C@@H]2[C@H]1O
TGI [1]: > 100 µM | TGI [2]: > 100 µM | TGI [3]: > 100 µM | TGI [4]: > 100 µM | TGI [5]: > 100 µM | TGI [6]: > 100 µM | TGI [7]: > 100 µM | TGI [11]: > 100 µM | TGI [8]: > 100 µM | TGI [12]: > 100 µM | TGI [9]: > 100 µM | TGI [13]: > 100 µM | TGI [10]: > 100 µM

Nc1nc(SCCC/C=C/B(O)O)nc2c1ncn2C1OC(CO)C(O)C1O (stereo unspecified)
TGI [1]: > 243 µM | TGI [2]: > 243 µM | TGI [3]: > 243 µM | TGI [4]: > 243 µM | TGI [5]: > 243 µM | TGI [6]: > 243 µM | TGI [7]: > 243 µM | TGI [11]: > 243 µM | TGI [8]: > 243 µM | TGI [12]: > 243 µM | TGI [9]: > 243 µM | TGI [13]: > 243 µM | TGI [10]: > 243 µM

C=C(/C=C/C=C(/CCC=C(C)C)COC(C)=O)[C@@H]1CC[C@]2([C@H](CCCO)/C(=C(/C)C=O)CC[C@]2(C)O)[C@@H]1O
TGI [1]: 32.6 µM | TGI [2]: 29.9 µM | TGI [4]: 30.7 µM | TGI [6]: 28.5 µM | TGI [7]: 54.5 µM | TGI [11]: 53.7 µM | TGI [12]: 11.1 µM | TGI [9]: 22 µM | TGI [13]: 34.9 µM | TGI [10]: 7.06 µM

CC1(C)[C@@H]2C[C@H]1C(Cc1ccccc1C[C@H]1c3cc(-c4ccccn4)ncc3[C@H]3C[C@@H]1C3(C)C)c1cc(-c3ccccn3)ncc12 (stereo partly specified)
TGI [1]: > 22 µM | TGI [2]: > 100 µM | TGI [3]: 1.45 µM | TGI [4]: > 28.8 µM | TGI [5]: 0.328 µM | TGI [6]: 8.42 µM | TGI [7]: > 100 µM | TGI [11]: > 100 µM | TGI [8]: > 100 µM | TGI [12]: 0.65 µM | TGI [9]: > 100 µM | TGI [13]: 1.23 µM | TGI [10]: > 100 µM

COc1cc2c(cc1OC)C(C1(O)CCCCC1)NCC2 (stereo unspecified)
TGI [2]: > 100 µM | TGI [3]: > 100 µM | TGI [4]: > 100 µM | TGI [5]: > 100 µM | TGI [7]: > 100 µM | TGI [11]: > 100 µM | TGI [12]: > 100 µM | TGI [9]: > 100 µM | TGI [13]: > 100 µM | TGI [10]: > 100 µM

C#CCCCCC#CC1CCCC1C1=CC(=O)c2ccccc21 (stereo unspecified)
TGI [1]: 22 µM | TGI [2]: 19.4 µM | TGI [3]: 17.8 µM | TGI [4]: 16.9 µM | TGI [5]: 20.3 µM | TGI [6]: 21.1 µM | TGI [7]: 28.7 µM | TGI [11]: 23.7 µM | TGI [8]: 23.9 µM | TGI [12]: 3.93 µM | TGI [9]: 6.39 µM | TGI [13]: > 100 µM | TGI [10]: 28.6 µM

CN(C)CCNc1ccc2nnn3c4ccc(Cl)cc4c(=O)c1c23
TGI [1]: 17.5 µM | TGI [2]: 21.8 µM | TGI [3]: 23 µM | TGI [4]: 6.72 µM | TGI [5]: 21.4 µM | TGI [6]: 16.2 µM | TGI [7]: 35.1 µM | TGI [11]: 13.3 µM | TGI [8]: 15.9 µM | TGI [12]: 19.9 µM | TGI [9]: 18 µM | TGI [13]: 13.3 µM | TGI [10]: 10.5 µM

Cc1c(Cl)c(S(N)(=O)=O)cc(S(N)(=O)=O)c1NC(=O)c1ccc(Cl)cc1
TGI [1]: > 100 µM | TGI [2]: > 100 µM | TGI [3]: > 100 µM | TGI [4]: > 100 µM | TGI [5]: > 100 µM | TGI [7]: > 100 µM | TGI [11]: > 100 µM | TGI [8]: > 100 µM | TGI [12]: > 100 µM | TGI [9]: > 100 µM | TGI [13]: > 100 µM | TGI [10]: > 100 µM

NC(=O)c1nnc2cc(F)c(F)cc2c1N
TGI [1]: 56.8 µM | TGI [2]: > 100 µM | TGI [3]: > 100 µM | TGI [4]: 69.7 µM | TGI [5]: 39.6 µM | TGI [6]: > 100 µM | TGI [7]: 82.4 µM | TGI [11]: > 100 µM | TGI [8]: > 100 µM | TGI [12]: > 100 µM | TGI [9]: > 100 µM | TGI [13]: > 100 µM | TGI [10]: > 100 µM

NC(Cc1ccc2oc3cc(=O)c4ccccc4c-3nc2c1)C(=O)O (stereo unspecified)
TGI [1]: 77.7 µM | TGI [2]: 39.5 µM | TGI [3]: 81.5 µM | TGI [4]: > 87.1 µM | TGI [5]: 76.3 µM | TGI [6]: 54.6 µM | TGI [7]: > 100 µM | TGI [11]: > 87.6 µM | TGI [8]: > 88.9 µM | TGI [12]: 76.2 µM | TGI [9]: 80.9 µM | TGI [13]: > 88.3 µM | TGI [10]: 21.5 µM

Cc1ccccc1N=Nc1ccc(N=Nc2c(O)ccc3cc(S(=O)(=O)O)cc(S(=O)(=O)O)c23)c(C)c1
TGI [1]: > 100 µM | TGI [3]: > 100 µM | TGI [4]: > 100 µM | TGI [5]: > 100 µM | TGI [6]: > 100 µM | TGI [7]: > 100 µM | TGI [11]: > 100 µM | TGI [8]: > 100 µM | TGI [12]: > 100 µM | TGI [9]: > 100 µM | TGI [13]: > 100 µM | TGI [10]: > 100 µM

Cc1ccc(NCCN(C)CC(C)O)c2c(=O)c3ccc(Cl)cc3sc12 (stereo unspecified)
GI50 [2]: 4.42 µM | TGI [2]: > 100 µM | GI50 [3]: 4.13 µM | TGI [3]: > 100 µM | GI50 [4]: 3.68 µM | TGI [4]: > 100 µM | GI50 [7]: 3.19 µM | TGI [7]: > 100 µM | GI50 [11]: 3 µM | TGI [11]: > 100 µM | GI50 [8]: 8.47 µM | TGI [8]: 81.8 µM

O=S(=O)(O)c1cc(O)c2c(O)c(N=Nc3ccc(/C=C/c4ccc(N=Nc5c(S(=O)(=O)O)cc6cc(S(=O)(=O)O)cc(O)c6c5O)cc4S(=O)(=O)O)c(S(=O)(=O)O)c3)c(S(=O)(=O)O)cc2c1
TGI [1]: > 100 µM | TGI [2]: > 100 µM | TGI [3]: > 100 µM | TGI [4]: > 100 µM | TGI [5]: > 100 µM | TGI [6]: > 100 µM | TGI [7]: > 100 µM | TGI [11]: > 100 µM | TGI [8]: > 100 µM | TGI [12]: > 100 µM | TGI [9]: > 100 µM | TGI [13]: > 100 µM | TGI [10]: > 100 µM

C/C=C1/CN2CC[C@@H]3c4ccccc4N4[C@H](C(=O)OC)[C@H]1C[C@H]2[C@]34/C=C/C1=COC[C@@H]2[C@H]1C[C@H]1c3c(c4ccccc4n3C)C[C@@H]2N1C
TGI [2]: 9.17 µM | TGI [3]: 9.66 µM | TGI [4]: 7.65 µM | TGI [5]: 7.29 µM | TGI [6]: 7.61 µM | TGI [7]: 8.06 µM | TGI [11]: 7.99 µM | TGI [8]: 6.88 µM | TGI [9]: 7.6 µM | TGI [13]: 13.4 µM | TGI [10]: 6.62 µM
